The results in this text go back to ChEMBL document CHEMBL4417636, “Small molecule inhibitors of pendrin ion exchange and pharmaceutical compositions” (2017).

The source made the active and inactive calls. The rule behind the calls is not given here.

The target in one test is T1, Pendrin (Homo sapiens) (UniProt O43511).
T1 sequence (whole entry): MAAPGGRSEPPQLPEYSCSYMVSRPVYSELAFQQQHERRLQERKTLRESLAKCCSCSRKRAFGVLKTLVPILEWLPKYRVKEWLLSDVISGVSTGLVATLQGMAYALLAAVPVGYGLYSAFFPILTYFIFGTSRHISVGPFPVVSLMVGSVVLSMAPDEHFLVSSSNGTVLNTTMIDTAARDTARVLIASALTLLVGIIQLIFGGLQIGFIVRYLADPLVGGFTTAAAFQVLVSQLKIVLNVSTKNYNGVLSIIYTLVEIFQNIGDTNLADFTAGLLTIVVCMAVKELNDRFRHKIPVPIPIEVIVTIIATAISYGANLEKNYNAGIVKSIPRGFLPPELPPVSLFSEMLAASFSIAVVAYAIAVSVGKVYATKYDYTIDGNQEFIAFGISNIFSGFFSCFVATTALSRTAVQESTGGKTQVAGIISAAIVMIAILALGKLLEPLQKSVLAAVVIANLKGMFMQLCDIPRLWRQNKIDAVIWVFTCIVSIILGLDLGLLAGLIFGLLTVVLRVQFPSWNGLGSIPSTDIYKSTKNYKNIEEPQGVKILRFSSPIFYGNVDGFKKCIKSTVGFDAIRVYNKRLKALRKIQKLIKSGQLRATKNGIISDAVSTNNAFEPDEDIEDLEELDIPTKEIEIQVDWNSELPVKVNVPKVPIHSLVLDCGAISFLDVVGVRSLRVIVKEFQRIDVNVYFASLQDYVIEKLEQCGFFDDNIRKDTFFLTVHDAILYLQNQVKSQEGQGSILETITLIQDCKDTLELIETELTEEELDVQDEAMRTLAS
Briefly: Inhibition of pendrin in human bronchial CFBE assessed as increase in airway surface liquid depth at 25 uM by rhodamine B-dextran fluorescence based confocal microscopy (reference value: -16 um).

A further test has as its system Mus musculus. Put plainly: Potentiation of 20 mg/kg, ip furosemide-induced acute diuretic action in CD1 mouse assessed as increase in urinary Na+ excretion at 10 mg/kg, ip measured at 3 hrs relative to control. Type of test: functional, organism-based.
Test [1] addresses T2, Band 3 anion transport protein (Mus musculus) (UniProt P04919).
T2 sequence (whole entry): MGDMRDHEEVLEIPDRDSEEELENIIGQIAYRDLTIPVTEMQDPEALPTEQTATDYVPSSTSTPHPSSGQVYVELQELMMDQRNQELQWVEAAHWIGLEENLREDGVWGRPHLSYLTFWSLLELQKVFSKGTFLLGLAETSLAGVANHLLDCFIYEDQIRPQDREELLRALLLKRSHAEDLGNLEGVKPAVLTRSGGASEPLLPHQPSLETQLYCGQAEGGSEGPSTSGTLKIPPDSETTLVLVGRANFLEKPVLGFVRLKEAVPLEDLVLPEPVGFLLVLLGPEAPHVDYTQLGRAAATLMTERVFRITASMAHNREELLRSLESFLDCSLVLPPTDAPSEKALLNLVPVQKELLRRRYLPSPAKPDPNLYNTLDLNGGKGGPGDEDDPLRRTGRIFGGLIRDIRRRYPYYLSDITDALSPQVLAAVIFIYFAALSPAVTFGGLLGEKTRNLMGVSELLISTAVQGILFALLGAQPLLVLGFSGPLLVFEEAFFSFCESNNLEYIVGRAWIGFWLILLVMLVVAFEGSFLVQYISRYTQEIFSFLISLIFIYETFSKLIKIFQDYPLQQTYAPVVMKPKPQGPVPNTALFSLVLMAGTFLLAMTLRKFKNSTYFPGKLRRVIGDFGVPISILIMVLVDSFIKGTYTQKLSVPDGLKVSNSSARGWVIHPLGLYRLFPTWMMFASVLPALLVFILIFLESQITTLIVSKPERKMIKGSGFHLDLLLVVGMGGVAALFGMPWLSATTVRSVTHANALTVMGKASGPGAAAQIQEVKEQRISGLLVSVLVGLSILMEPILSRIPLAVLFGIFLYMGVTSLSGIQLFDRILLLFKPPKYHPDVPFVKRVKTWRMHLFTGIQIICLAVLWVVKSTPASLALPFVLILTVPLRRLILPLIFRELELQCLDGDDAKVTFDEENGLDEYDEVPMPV
Put plainly: Inhibition of mouse Slc4a1 expressed in COS7 co-expressing EYFP-HIF assessed as effect on SCN(-) gradient at 25 uM by YFP-based fluorescence quenching assay.

The target of test [2] is T3, Pendrin (Mus musculus) (UniProt Q9R155).
T3 sequence (whole entry): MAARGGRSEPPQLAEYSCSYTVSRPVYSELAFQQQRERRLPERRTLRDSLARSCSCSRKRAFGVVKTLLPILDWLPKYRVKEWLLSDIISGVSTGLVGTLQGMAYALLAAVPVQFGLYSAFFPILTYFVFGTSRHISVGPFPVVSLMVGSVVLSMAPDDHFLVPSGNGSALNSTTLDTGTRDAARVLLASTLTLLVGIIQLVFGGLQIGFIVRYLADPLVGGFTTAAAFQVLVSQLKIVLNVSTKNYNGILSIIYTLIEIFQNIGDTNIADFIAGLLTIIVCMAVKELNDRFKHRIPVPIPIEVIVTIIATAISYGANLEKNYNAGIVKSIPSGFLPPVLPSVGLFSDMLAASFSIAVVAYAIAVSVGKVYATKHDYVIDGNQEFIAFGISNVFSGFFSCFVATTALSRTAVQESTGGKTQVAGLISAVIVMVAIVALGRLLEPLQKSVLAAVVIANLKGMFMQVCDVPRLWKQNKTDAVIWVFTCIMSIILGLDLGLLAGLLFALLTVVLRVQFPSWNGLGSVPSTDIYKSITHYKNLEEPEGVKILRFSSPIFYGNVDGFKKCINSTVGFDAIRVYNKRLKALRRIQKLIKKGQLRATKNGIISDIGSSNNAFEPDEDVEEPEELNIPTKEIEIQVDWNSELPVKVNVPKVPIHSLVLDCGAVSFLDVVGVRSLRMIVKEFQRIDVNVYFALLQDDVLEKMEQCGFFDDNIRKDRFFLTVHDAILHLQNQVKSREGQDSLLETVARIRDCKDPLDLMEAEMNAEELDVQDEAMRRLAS
Briefly: Inhibition of mouse pendrin expressed in FRT cells co-expressing YFP-HIF assessed as reduction in pendrin-mediated exchange of Cl(-) with I(-) by pH-sensitive fluorescent probe BCECF-AM based fluorescence assay relative to control. In kind it is cell-based.

Test [3] deals with T3, Pendrin (Mus musculus). Briefly: Inhibition of mouse pendrin expressed in FRT cells co-expressing YFP-HIF assessed as reduction in pendrin-mediated kinetics of CI7HCO3(-) exchange by pH-sensitive fluorescent probe BCECF-AM based fluorescence assay relative to control. In kind it is cell-based.

On to `Cn1nc(COc2cccc(F)c2)c2c1CCN(C(=O)Nc1ccc(Cl)cc1)C2`, for which, on Pendrin (Homo sapiens), the Activity was -8 µm.

Turning to `Cc1n[nH]c(-c2cc(S(=O)(=O)NC3CCCc4ccccc43)c(C)s2)c1C` (stereo not given), in the test on Mus musculus, the result was Active. The inhibition entry in test [1] is “inactive”. The inhibition result on Pendrin (Mus musculus) [2] and at Pendrin (Mus musculus) [3] was “Dose-dependent effect” in each case.
